In patent US20070197660A1, “Compounds for modulating cell proliferation” (The Hospital for Sick Children, priority 2003, published 2007) one finds IC50 data, which are given here for 11 compounds.

Holding throughout (type): cell-based
For one assay, the system named is Z119 cells. Kind of assay: Killing of Philadelphia positive Z119 acute lymphoblastic leukemia cells in culture (colony assay). The settings on record: 168 h, Z119 Ph+ ALL cells, colonies >20 cells counted at 7 days or earlier, methylcellulose, read-out: ALL (Z 119) IC 50. Here is the method: Z119 cells are plated in 1 mL volumes at a density of 1×10^4 cells/mL, in the absence of exogenous growth factors, into 35 mm petri dishes (Nunc, Gibco) containing IMDM (OCI, Toronto) plus 20% FCS (Cansera Rexdale, ON) in 0.9% (vol/vol) methylcellulose (Fluka, Switzerland) with various concentrations of test compounds. Cultures are set at 37° C., 5% CO2 in a humidified atmosphere. Colonies consisting of more than 20 cells are counted at 7 days or earlier using an inverted microscope. Results see Tables 4 and 8.

In another assay the test system is NBM (BFU-E). Kind of assay: Effect upon normal bone marrow differentiation in culture (CFU-GEMM assay, BFU-E). The settings on record: BFU-E colonies. The source says:
A CFU-GEMM assay may be performed according to Fauser and Messner (1978, Blood, 52(6) 143-8) and Messner and Fausser (1980, Blut, 41(5) 327-33).

The test system of a further assay is OCI-AML-3 cells. Kind of assay: Killing of AML3 acute myeloid leukemia cells in culture (colony assay). Conditions: Homo sapiens, colonies >20 cells scored at 5-6 days, methylcellulose. Here is the method:
OCI-AML-3 cells are plated in 35 mm petri dishes (Nunc, Gibco) in 1 mL volumes at a density of 3.3×10^3 cells/mL, in the absence of exogenous growth factors, containing alpha MEM plus 20% FCS (Cansera, Rexdale Ont.), and 0.9% (vol/vol) methylcellulose (Fluka, Switzerland) and various concentrations of test compounds. Cell cultures are incubated in a humidified atmosphere at 37° C. with 5% CO2. Colonies containing more than 20 cells are scored, using an inverted microscope, at 5-6 days. Results see Tables 4 and 8.

Setting [1] is: Table 4, read-out: NBM (BFU-E) IC 50.
[2] abbreviates: Table 4, read-out: AML (OCI AML-3) IC 50.
The mark [3] stands for this setting: Table 8, read-out: NBM (BFU-E) IC 50.
Where [4] appears, read: Table 8, read-out: AML (OCI AML-3) IC 50.

Like-named read-outs stand apart in the source and are kept apart here. Some results are limits rather than exact numbers.

Take `COCCOCCOCCOC(=O)/C(C#N)=C/C=C/c1ccc(O)c(O)c1` [CRIV-42, 2-Cyano-5-(3,4-dihydroxyphenyl)-penta-2E,4E-dienoic acid 2-[2-(2-methoxyethoxy)ethoxy]ethyl ester]: the IC50 in the assay on Z119 cells (Table 4) is not below 500 nM; with NBM (BFU-E) (setting [1]), not below 10000 nM; with OCI-AML-3 cells (setting [2]), 90 nM.

On to `COc1cc(/C=C/C=C(\C#N)C(=O)OCc2ccccc2)cc(OC)c1O` [CRIX-38, 2-Cyano-5-(4-hydroxy-3,5-dimethoxyphenyl)-penta-2E,4E-dienoic acid benzyl ester], for which the results for the IC50 with Z119 cells (Table 4), in the assay with NBM (BFU-E) (setting [1]) and with OCI-AML-3 cells (setting [2]) were more than 1000 nM, not above 10000 nM and more than 500 nM, respectively.

Regarding `N#C/C(=C\C=C\c1ccc(O)c(O)c1)C(=O)OCc1ccccc1` [CRIX-39, 2-Cyano-5-(3,4-dihydroxyphenyl)-penta-2E,4E-dienoic acid benzyl ester], the IC50 in the assay on Z119 cells (Table 4) was not below 600 nM; in the assay with NBM (BFU-E) (setting [1]), 8000 nM; in the assay on OCI-AML-3 cells (setting [2]), 90 nM.

Consider `N#C/C(=C\C=C\c1ccc(O)c(O)c1)S(=O)(=O)c1ccccc1` [CRVIII-33, 2-Benzenesulfonyl-5-(3,4-dihydroxyphenyl)-penta-2E,4E-dienenitrile], for which the figures for the IC50 in the assay with Z119 cells (Table 8), in the assay on NBM (BFU-E) (setting [3]) and in the assay with OCI-AML-3 cells (setting [4]) were not below 550 nM, 12000 nM and more than 500 nM, respectively.

For the compound `COc1cc(/C=C/C=C(\C#N)S(=O)(=O)c2ccccc2)cc(OC)c1O` [CRVIII-34, 2-Benzenesulfonyl-5-(4-hydroxy-3,5-dimethoxyphenyl)-penta-2E,4E-dienenitrile], the IC50 in the assay with Z119 cells (Table 8) is more than 1000 nM; in the assay on NBM (BFU-E) (setting [3]), not above 10000 nM; in the assay with OCI-AML-3 cells (setting [4]) it was more than 500 nM.

On to `N#C/C(=C\C=C\c1ccc([N+](=O)[O-])cc1)S(=O)(=O)c1ccccc1` [CRVIII-35, 2-Benzenesulfonyl-5-(4-nitrophenyl)-penta-2E,4E-dienenitrile], for which the IC50 in the assay with Z119 cells (Table 8) is more than 1000 nM; in the assay with NBM (BFU-E) (setting [3]), more than 5000 nM; in the assay on OCI-AML-3 cells (setting [4]) it was more than 500 nM.

Consider `N#C/C(=C\C=C\c1ccc(O)c(O)c1)S(=O)(=O)c1ccccn1` [CRVIII-50, 5-(3,4-Dihydroxyphenyl)-2-(pyridine-2-sulfonyl)-penta-2E,4E-dienenitrile], for which the IC50 was not below 170 nM in the assay on Z119 cells (Table 8), not above 5000 nM in the assay with NBM (BFU-E) (setting [3]) and not below 250 nM in the assay with OCI-AML-3 cells (setting [4]).

For `N#C/C(=C\C=C\c1ccc(O)c(O)c1)S(=O)(=O)c1ccc(Cl)cc1` [CRVIII-51, 2-(4-Chlorobenzenesulfonyl)-5-(3,4-dihydroxyphenyl)-penta-2E,4E-dienenitrile], the IC50 was 230 nM in the assay on Z119 cells (Table 8), not below 5000 nM with NBM (BFU-E) (setting [3]) and 250 to 500 nM with OCI-AML-3 cells (setting [4]).

Consider `Cc1ccc(S(=O)(=O)/C(C#N)=C/C=C/c2ccc(O)c(O)c2)cc1` [CRVIII-52, 5-(3,4-Dihydroxyphenyl)-2-(toluene-4-sulfonyl)-penta-2E,4E-dienenitrile], for which the IC50 in the assay on Z119 cells (Table 8) is 250 to 500 nM; in the assay on NBM (BFU-E) (setting [3]), not above 10000 nM; in the assay on OCI-AML-3 cells (setting [4]), 250 to 500 nM.

Regarding `CS(=O)(=O)/C(C#N)=C/C=C/c1ccc(O)c(O)c1` [CRVIII-53, 5-(3,4-Dihydroxyphenyl)-2-methanesulfonyl-penta-2E,4E-dienenitrile], the IC50 is 450 nM in the assay with Z119 cells (Table 8), not above 10000 nM in the assay with NBM (BFU-E) (setting [3]) and 250 to 500 nM in the assay on OCI-AML-3 cells (setting [4]).

As to `COCCOCCOCCOC(=O)/C(C#N)=C/C=C/c1cc(OC)c(O)c(OC)c1` [GRIV-46, 2-Cyano-5-(4-hydroxy-3,5-dimethoxyphenyl)-penta-2E,4E-dienoic acid 2-[2-(2-methoxyethoxy)ethoxy]ethyl ester], the IC50 in the assay with Z119 cells (Table 4) is more than 500 nM; in the assay on NBM (BFU-E) (setting [1]) it was not below 10000 nM; in the assay on OCI-AML-3 cells (setting [2]) it was not below 500 nM.
